Results on one compound are retold here after patent US20110110916A1, “METHODS FOR TREATING AND/OR PREVENTING CARDIOMYOPATHIES BY ERK OR JNK INHIBITION” (priority 2008, published 2011).

One experiment deals with HeLa cells. Nature of the experiment: ERK1/2 phosphorylation in HeLa cells treated with Emd and Lmna siRNAs. It is filed as cell-based, human. The following applies: 45 μM for 24 hours. The method, then:
(§1) Human HeLa cells and mouse C2C12 cells were maintained in a 5% CO2 atmosphere at 37° C. The cells were cultured in Dulbecco's modified Eagle's medium supplemented with 10% calf bovine serum and 0.1% gentamicin.
(§2) One day before transfection, HeLa and C2C12 cells were trypsinized, diluted with fresh medium without antibiotics and transferred to 24-well plates. Transient transfection of siRNAs was carried out using Oligofectamine (Invitrogen) as recommended by the manufacturer. Cells were preincubated in 7.5 μl OPTIMEM 1 medium (Life Technologies) and 2 μl Oligofectamine per well for 5 minutes at room temperature. During the time of this incubation, 40 μl OPTIMEM 1 medium were mixed with 2.5 μl siRNA. The two mixtures were combined and incubated for 20 minutes at room temperature for complex formation. The entire mixture was added to the cells in one well resulting in a final concentration of […] for the siRNAs. […]
(§3) Proteins were separated by SDS-PAGE, transferred to nitrocellulose membranes and blotted with primary antibodies against ERK1/2 (Santa-Cruz), pERK1/2 (Cell Signaling), lamin A/C (Santa-Cruz), emerin (Novocatra), β-actin (Sant-Cruz) and Gapdh (Santa-Cruz). […] Band densities were calculated using Scion Image software (Scion Corporation) and normalized to the appropriate total extract to control for protein loading. […]

A further experiment relates to cyclooxygenase-1. The following applies: reference 137; cited from earlier work.
A further experiment deals with C2C12 cells. The experiment is described as follows: ERK1/2 phosphorylation in C2C12 cells treated with Emd and Lmna siRNAs (immunoblot, ELISA). It is filed as cell-based, mouse. The following applies: 45 μM for 24 hours. The method, then: as §1, §2, §3
Another experiment relates to cyclooxygenase-2. The following applies: reference 137; cited from earlier work.

For the compound `COc1cccc(-c2cc(=O)c3ccccc3o2)c1N` [PD98059, 2-(2-amino-3-methoxyphenyl)-4H-1-benzopyran-4-one], the “increase in pERK (immunoblot)” value is reported as “reduced” in the experiment with HeLa cells; “reduced” in the experiment on C2C12 cells (C2C12 cells treated with Emd and Lmna siRNAs). Besides, the “activity against cyclooxygenase-1” value in the experiment with cyclooxygenase-1 is on record as “has activity”. Also, the “ERK1/2 phosphorylation (ELISA)” value in the experiment on C2C12 cells (siRNA-treated C2C12 cells (FIG. 20B)) is given as “Inhibition of ERK1/2”. For the same compound, the “activity against cyclooxygenase-2” value in the experiment on cyclooxygenase-2 is listed as “has activity”.
